Test results from ChEMBL document CHEMBL1255229, “Novel antimicrobial peptides that exhibit activity against select agents and other drug resistant bacteria” (2010).
≈ marks a conversion by molar mass, not a printed value.

Columns and labels:
Assay type in all cases: functional
Acinetobacter baumannii [1] = assay: Antimicrobial activity against Acinetobacter baumannii ATCC 19606 after 24 hrs; settings: ATCC 19606 = CIP 70.34 = JCM 6841, 24 h
Acinetobacter baumannii [2] = assay: Antimicrobial activity against Acinetobacter baumannii WRAIR after 24 hrs
Staphylococcus aureus = assay: Antimicrobial activity against methicillin-resistant Staphylococcus aureus ATCC 33591 after 24 hrs; settings: ATCC 33591, 24 h
Yersinia pestis = assay: Antimicrobial activity against Yersinia pestis CO92 after 24 hrs; settings: CO92, 24 h
Brucella melitensis = assay: Antimicrobial activity against Brucella melitensis 16 M after 24 hrs
Brucella abortus = assay: Antimicrobial activity against Brucella abortus 2308 after 24 hrs; settings: Brucella abortus, 2308, 24 h
Brucella suis = assay: Antimicrobial activity against Brucella suis ATCC 23445 after 24 hrs; settings: ATCC 23445, 24 h
Bacillus anthracis = assay: Antimicrobial activity against Bacillus anthracis Ames after 24 hrs
Francisella tularensis = assay: Antimicrobial activity against Francisella tularensis SCHU-S4 after 24 hrs; settings: SCHU-S4, 24 h
Burkholderia mallei = assay: Antimicrobial activity against Burkholderia mallei ATCC 23444 after 24 hrs; settings: ATCC 23444, 24 h
[3] = test system: Burkholderia pseudomallei; assay: Antimicrobial activity against Burkholderia pseudomallei BURK003(1026b) after 24 hrs

Structure (SMILES) | MIC (Acinetobacter baumannii [1]) [µM] | MIC (Acinetobacter baumannii [2]) [µM] | MIC (Staphylococcus aureus) [µM] | MIC (Yersinia pestis) [µM] | MIC (Brucella melitensis) [µM] | MIC (Brucella abortus) [µM] | MIC (Brucella suis) [µM] | MIC (Bacillus anthracis) [µM] | MIC (Francisella tularensis) [µM] | MIC (Burkholderia mallei) [µM] | MIC [3] [µM]
CC1(C)S[C@@H]2[C@H](NC(=O)[C@H](N)c3ccccc3)C(=O)N2[C@H]1C(=O)O [AMPICILLIN] | 179 (≈ 62.5 µg/mL) | 1430 (≈ 500 µg/mL) | 93 (≈ 32.5 µg/mL) | 0.8 (≈ 0.28 µg/mL) | 11 (≈ 3.84 µg/mL) | 11 (≈ 3.84 µg/mL) | 0.8 (≈ 0.28 µg/mL) | 0.4 (≈ 0.14 µg/mL) | 0.09 (≈ 0.0314 µg/mL) | 0.09 (≈ 0.0314 µg/mL) | 0.09 (≈ 0.0314 µg/mL)
C[C@H]1c2cccc(O)c2C(=O)C2=C(O)[C@]3(O)C(=O)C(C(N)=O)=C(O)[C@@H](N(C)C)[C@@H]3[C@@H](O)[C@@H]21 [DOXYCYCLINE] | 0.56 (≈ 0.249 µg/mL) | 0.56 (≈ 0.249 µg/mL) | 17.6 (≈ 7.82 µg/mL) | 0.56 (≈ 0.249 µg/mL) | 0.56 (≈ 0.249 µg/mL) | 0.56 (≈ 0.249 µg/mL) | 0.56 (≈ 0.249 µg/mL) | 0.27 (≈ 0.12 µg/mL) | 0.09 (≈ 0.04 µg/mL) | 0.09 (≈ 0.04 µg/mL) | 0.09 (≈ 0.04 µg/mL)
